Results taken from article PMC6930223 (Scientific Reports, 2019).

Molecular target: hERG1a/1b current (Homo sapiens, UniProt Q12809)
Method: All working solutions were sterile-filtered, stored at −20 °C and thawed to room temperature before use.
Prior to electrophysiology study, the HEK293-hERG1a/1b cells were first grown in complete medium without selection antibiotics for 6 days. Approximately 5.0 × 10^5 cells were then plated onto an uncoated 96-mm cell culture dish for a maximum of 3 days. […] The cell suspension was then transferred into a 15-ml polypropylene tube and centrifuged at 100 × g for 3 min. Subsequently, the cell pellet was resuspended in extracellular solution to obtain a final density of 2 × 10^6–3 × 10^6 cells/ml and incubated on ice for 20 min to allow cell recovery. The electrophysiology studies were performed using NPC®-1 chips (Nanion Technologies, Germany) and Port-a-Patch system (Nanion Technologies, Germany) following manufacturer’s instructions, within the next 2 h. For characterization and determination of the hERG1a/1b current inhibition, a series of voltage protocols were applied as published previously.
The hERG1a/1b current was recorded in cells achieving whole-cell configuration. Briefly, a single cell was first held at −80 mV, the theoretical cardiac resting membrane potential, on the aperture of the NPC-1 chip (Nanion Technologies, Germany). To characterize the I-V relationship, the cell was depolarized to test potentials ranging from −60 mV to +50 mV for 4 s in […], followed by a 5-s step to −50 mV before returning to −80mV.
To determine the pharmacological effects of the HEK293-hERG1a/1b cells, the cells were perfused with test compound solutions using an external perfusion system. […] The mean of six successive Itail was recorded for each test concentration. Four independent experiments were conducted to derive the dose-response curve.

Compound: CNCCC(Oc1ccc(C(F)(F)F)cc1)c1ccccc1 (stereo not shown) [fluoxetine, reference compound]
- Hill coefficient (h): 1.19
